Measurements: patent publication US6407072B1, “Lysoganglioside derivatives” (Fidia S.p.A., priority 1988, dated 2002)

Assays:
new-born rat = experiment: NMDA-induced neurotoxicity in new-born rat (mortality); type: in vivo; conditions: for mortality (deceased/treated) / relative mortality (% of treated): up to 5 days; for protection from mortality following i.c.v. injection of NMDA: s.c., 1 hour before and immediately after NMDA
Procedure: Newborn rats (7 days old) weighing about 13 g are injected with 25 nmol NMDA i.c.v. Under these conditions the excitotoxin induces a decrease of 28% in weight of the injected hemisphere and a mortality rate of 53.6%.
Administration of the compounds: injection method and parameters observed. […] The compounds were solubilized in PBS. The N-dichloro acetyl lyso GM1 and N-monochloro acetyl lyso GM1 derivatives were tested in comparison to magnesium sulfate, MK-801 (a non-competitive […] of the NMDA receptor) [G. McDonald et al., Eur. J. Pharmacol. 140: 153-157 (1987)] and kinurenic acid [P. Andiné, Neuro-science Letters, 90: 208-212 (1988)] which is capable of diminishing brain damage. Mortality was assessed 5 days after MNDA injection.

PKC [1] = experiment: Translocation of PKC induced by glutamate: [3H]-phorbol ester binding on intact cells; type: cell-based, rat; conditions: for inhibition of PKC translocation, cotreatment and prolonged incubation: cotreatment 35 minutes with glutamate, then prolonged exposure (35 minutes)
Procedure: (§1) 1.a. Primary cultures of cerebral granule cells from 8-day-old Sprague Dawley rats (Zivic Miller) [Gallo V. et al., Proc. Natl. Acad. Sci. USA 79, 7919-7923 (1982)]. These cultures contain >90% of granule cells, <5% of GABAergic neurons and <5% of glial cells [Vaccarino F. M. et al., J. Neurosci. 7, 65-76 (1987)]. The cells were used for the experiments on the 8th and 9th days of culture.
(§2) On the 8th and 9th days of culture, concentrations varying between 7 and 100 μM of the following substances are added: N-dichloro acetyl lyso GM1, N-monochloro acetyl lyso GM1, GT1b, GM1. More particularly, the monolayers of granule cells are preincubated with these compounds in Locke's solution (1 ml) for 120 minutes (or for periods of time varying between 0 and 120 minutes) at 37° C. Gangliosides and derivatives are previously dissolved and subsequently diluted, if necessary, in methanol: H2O/95:5. Aliquots of the solution are dried in a N2 current and gathered with a suitable volume of Locke's solution until the final concentration is reached.
1.d. Translocation of PKC induced by glutamate: assessment of [3H]-phorbol ester binding on intact cells.
The effects of binding of [3H]-phorbol ester are assessed under two different types of experimental conditions: […]
[…] After cotreatment the cells-are washed and [^3H]-PDBu binding is assessed in the presence of Mg^+2. Granule cells are grown on discs measuring 35 mm in diameter and then washed and incubated with Locke's solution containing 4-B-[^3H]-phorbol-12, 13-dibutyrate [^3H]-P(Bto)2, 12.5 Ci/mmol (1 Ci=37 GBq; New England Nuclear), in 0.1% fatty acid-free bovine albumin serum (Sigma Chemical Co.). […] The binding is constant for over one hour. After incubation the cells are washed 3 times with cold Locke's solution and suspended with NaOH 0.1M. The aliquots of suspension are used for protein determination [Lowry O. H. et al., J. Biol. Chem. 193, 256-275 (1951)]. Non-specific binding is assessed in the presence of 2 μM phorbol 12-tetradecanoate 13-acetate (PTA).

Granule cells = experiment: N2 anoxia in granule cells, viability by MTT; type: cell-based, rat; conditions: for protection against endogenous glutamate-induced neurotoxicity under anoxic conditions: anoxia in N2 chamber; for MTT O.D. (570-630): N2 anoxia in absence of Mg2+; for MTT O.D. (570-630) / MTT O.D. as % of Control (+ MG^2+): MTT after 24 hours; for MTT O.D. as % of Control (+ MG^2+): N2 anoxia
Procedure: Pretreatment was performed with LIGA 20 and 21 for 10 minutes, and with GM1 for 60 minutes. The cells are washed with serum and placed in anoxic conditions in the absence of Mg^+2 for 5 hours and replaced in the culture medium. Cell viability was measured 24 hours after with MTT.
as §1
Effect of N-dichloro acetyl lyso GM1 following cell anoxia (in N2 chamber) on protection from endogenous glutamate-induced neurotoxicity. Cell viability is assessed by colorimetry after 24 hours (MTT stains only live cells).

cerebral granule cells [2] = experiment: Glutamate-induced neurotoxicity in primary cultures of cerebral granule cells (cell survival); type: cell-based, rat; conditions: for protection of cells from neurotoxic effect of glutamate, cotreatment: cotreatment 15 minutes with glutamate 50 μM; for protection from neurotoxic effect, cotreatment and prolonged incubation: cotreatment 35 minutes with glutamate, then prolonged exposure (35 minutes); for reversal of neurotoxic effect of glutamate by post-treatment: post-treatment 20 minutes, after glutamate administered intermittently; for prevention of glutamate-induced neurotoxicity: pretreatment for 2 hours; for concentration required for maximum protective effect: pretreatment
Procedure: as §1, §2
1.c. Glutamate-induced neurotoxicity.
The neurotoxic effect of glutamate was assessed under various experimental conditions:
Influence of incubation time ([…]) of the substances before exposure to glutamate: intact cells are preincubated with N-dichloro acetyl lyso GM1, N-monochloro acetyl lyso GM1 (7 μM) and GT1b (60 μM) at 37° C. After removal of excess compound by washing, the cells are incubated with 50 μM of glutamate in the absence of Mg+2 for 15 minutes at room temperature after which the cells are washed three more times and then replaced in the medium. Cell survival is assessed after 24 hours by histochemical techniques, or after […] staining which gives green fluorescence to live cells and red to non-living cells.
Influence of the time interval between pre-treatment with ganglioside derivatives or gangliosides themselves and exposure to glutamate: intact granule cells are preincubated for 2 hours at 37° C. with N-dichloro acetyl lyso GM1 (7 μM) GT1b and GM1 (100 μM). Excess compound is removed by washing and the cells exposed to 50 μM of glutamate (in the absence of Mg^+2) for 15 minutes after various time intervals (1, 2, 4, 6, 12, 18, 24 and 48 hours).
Effect of simultaneous treatment with glutamate and gangliosides: intact granule cells are treated (15 and 35 minutes) with 50 μM of glutamate and the gangliosides N-dichloro acetyl lyso GM1 (7 μM), GT1b and GM1 (100 μM) . In the first type of experiment (cotreatment for 15 minutes) the excess compound is removed by washing, and then cell survival is assessed according to the described method. In the second type of experiment (cotreatment for […]) the cotreatment is prolonged for another 35 minutes of exposure to gangliosides.
Effect of N-dichloro acetyl lyso GM1 following intermittent exposure to glutamate: granule cells are exposed intermittently to glutamate and treated with N-dichloro acetyl lyso GM1 (7 μM) for 20 minutes (in the absence of Mg2+). The excess product is removed by washing.

[3] = tested on: Mouse neuroblastoma cells (N2A); experiment: 3H Tdr in N2A cells; type: cell-based
[4] = tested on: Mouse neuroblastoma cells (N2A); experiment: Neuritogenic activity in N2A cells: morphology, % of cells with neurites; type: cell-based
Procedure: Mouse neuroblastoma cells (N2A) at the 180th passage are placed in wells at a concentration of 10,000 cells per well (COSTAR-24). The next day the medium was substituted with 350 μl of DMEM+P/G+10% FCS.
All compounds are dissolved in chloroform/methanol 2:1 dried in N2 current and resuspended in DMEM+P/G+10% FCS. The number of neurites is assessed 24 hours later.

[5] = tested on: Mouse neuroblastoma cells (N2A); experiment: MTT in N2A cells; type: cell-based
cerebral granule cells [6] = conditions: literature reports; cited from earlier work
PKC [7] = conditions: exposure of cerebral granule cells; literature reports; cited from earlier work
[8] = 200 nMoli/animal sc, 1 hr before and immediately after NMDA 25 nMoli i.c.v.
[9] = cotreatment with glutamate 50 μM, 7 μM
[10] = 75 nMoli/animal (2 mg/kg) i.p., 1 hr before and immediately after NMDA
[11] = preincubated 2 hours at 100 μM, glutamate 50 μM

| Compound | mortality (deceased/treated) (new-born rat; [8]) | relative mortality (% of treated) (new-born rat; [8]) [%] | protection from mortality following i.c.v. injection of NMDA (new-born rat) | protection against endogenous glutamate-induced neurotoxicity under anoxic conditions (Granule cells) | MTT O.D. (570-630) (Granule cells; pretreated 5 μm, 10 min) [O.D.] | MTT O.D. as % of Control (+ MG^2+) (Granule cells; pretreated 5 μm, 10 min) [%] | concentration required for maximum protective effect (cerebral granule cells [2]; glutamate 50 μM) [µM] | ^3H Tdr. (48 hr) n = 3 ([3]; 1 × 10^−4 M) | Morphology (24 hr) % of cells with neurites ([4]; 1 × 10^−4 M) | MTT (48 hr) n = 3 ([5]; 1 × 10^−4 M) | inhibition of PKC translocation, cotreatment and prolonged incubation (PKC [1]; 100 μM) | protection from glutamate-induced cell damage (cerebral granule cells [6]) | translocation and activation of PKC induced by glutamate (PKC [7]) | protection of cells from neurotoxic effect of glutamate, cotreatment (cerebral granule cells [2]; 100 μM) | protection from neurotoxic effect, cotreatment and prolonged incubation (cerebral granule cells [2]; 100 μM) | persistence of protective effect on glutamate-induced neurotoxicity after removal of the medium (cerebral granule cells [2]; [11]) | further results |
| --- | --- | --- | --- | --- | --- | --- | --- | --- | --- | --- | --- | --- | --- | --- | --- | --- | --- |
| CCCCCCCCCCCCCC=CC(O)C(COC1OC(CO)C(OC2OC(CO)C(OC3OC(CO)C(O)C(OC4OC(CO)C(O)C(O)C4O)C3NC(C)=O)C(OC3(C(=O)O)CC(O)C(NC(C)=O)C(C(O)C(O)CO)O3)C2O)C(O)C1O)NC(=O)C(Cl)Cl (stereo not drawn) [LIGA 20, N-dichloroacetyl Lyso GM1] | 1/8 | 12.5 | protected | active | 0.163 ± 0.012 | 112 | 7 | – | – | – | – | – | – | – | – | – | inhibition of PKC translocation, cotreatment and prolonged incubation (PKC [1]; 7 μM): effective; inhibition of PKC translocation induced by glutamate, cotreatment (PKC [1]; [9]): inhibits; time of maximum activity in inhibiting PKC translocation (PKC [1]; [9]): 30 min; concentration for maximum effect, times less than that of GT1b (cerebral granule cells [2]; 7 μM vs 60 μM): more than 8 times; preincubation time after which protection is evident (cerebral granule cells [2]; 7 μM, glutamate 50 μM): 5 min; protection of cells from neurotoxic effect of glutamate, cotreatment (cerebral granule cells [2]; 7 μM): effective; protection from neurotoxic effect, cotreatment and prolonged incubation (cerebral granule cells [2]; 7 μM): effective; reversal of neurotoxic effect of glutamate by post-treatment (cerebral granule cells [2]; 7 μM): prevents; reversal of neurotoxic effect of glutamate by post-treatment (cerebral granule cells [2]; 7 μM, listed as N-dichloro acetyl lyso GM1): active; persistence of protective effect on glutamate-induced neurotoxicity after removal of the medium (cerebral granule cells [2]; preincubated 2 hours at 7 μM, glutamate 50 μM): at least 24 hours; prevention of glutamate-induced neurotoxicity (cerebral granule cells [2]; 7 μM, glutamate 50 μM): almost totally prevents |
| CCCCCCCCCCCCC/C=C/[C@@H](O)[C@H](CO[C@@H]1O[C@H](CO)[C@@H](O[C@@H]2O[C@H](CO)[C@H](O[C@@H]3O[C@H](CO)[C@H](O)[C@H](O[C@@H]4O[C@H](CO)[C@H](O)[C@H](O)[C@H]4O)[C@H]3NC(C)=O)[C@H](O[C@]3(C(=O)O)C[C@H](O)[C@@H](NC(C)=O)[C@H]([C@H](O)[C@H](O)CO)O3)[C@H]2O)[C@H](O)[C@H]1O)NC(=O)CCl [LIGA 21, N-Monochloroacetyl Lyso GM1] | 0/8 | 0 | protected | active | 0.152 ± 0.013 | 105 | – | 14256 ± 1594 | 80-90% | 0.158 ± 0.01 | – | – | – | – | – | – | ^3H Tdr. (48 hr) n = 3 ([3]; 5 × 10^−5 M): 36016 ± 5030; ^3H Tdr. (48 hr) n = 3 ([3]; 5 × 10^−6 M): 43035 ± 487; Morphology (24 hr) % of cells with neurites ([4]; 5 × 10^−5 M): 80-90%; Morphology (24 hr) % of cells with neurites ([4]; 5 × 10^−6 M): <5%; concentration range of protection (cerebral granule cells [2]; glutamate-induced neurotoxicity): ~10 µM; MTT (48 hr) n = 3 ([5]; 5 × 10^−5 M): 0.243 ± 0.008; MTT (48 hr) n = 3 ([5]; 5 × 10^−6 M): 0.324 ± 0.01 |
| C[C@]12N[C@H](Cc3ccccc31)c1ccccc12 [MK 801, reference compound] | – | – | – | – | – | – | – | – | – | – | – | – | – | – | – | – | mortality (deceased/treated) (new-born rat; [10]): 6/16; relative mortality (% of treated) (new-born rat; [10]): 37% |
| N′-monochloro acetyl lyso GM1 [LIGA 22] | – | – | – | – | – | – | – | – | <5% | – | – | – | – | – | – | – | – |
| monosialosyl-N-tetraglycosyl-ceramide [GM1, reference compound] | – | – | – | – | – | – | – | 40834 ± 1885 | 70-80% | 0.259 ± 0.007 | effective | offer protection | inhibits | is not | effective | no more than 1 hours | MTT O.D. (570-630) (Granule cells; pretreated 100 μM, 60 min): 0.160 ± 0.010 O.D.; MTT O.D. as % of Control (+ MG^2+) (Granule cells; pretreated 100 μM, 60 min): 110% |
| trisialosyl-N-tetraglycosylceramide [GT1b, reference compound] | – | – | – | – | – | – | 60 | – | – | – | effective | offer protection | inhibits | is not | effective | 4 h | incubation time after which protection is significant (cerebral granule cells [2]; 60 μM, glutamate 50 μM): 60 min; prevention of glutamate-induced neurotoxicity (cerebral granule cells [2]; 60 μM, glutamate 50 μM): almost totally prevents |
